ChEMBL document CHEMBL5715954, “Silencing c-Myc translation as a therapeutic strategy through targeting PI3Kδ and CK1ε in hematological malignancies” (Blood, 2017)
Calls of active or inactive are those of the source. The calls are words filed in the database; no cut-off is given here.

Legend:
[1] = molecular target: Bone morphogenetic protein receptor type-1B (Homo sapiens) (UniProt O00238); experiment: Inhibition of human ALK6 assessed as enzyme activity at 1 uM using casein as substrate preincubated for 20 mins followed by [gamma-33P]-ATP addition and measured after 120 mins by radiometric Hot-SpotSM Kinase assay relative to control; design: scale not given: the % may be the effect or the level left
[2] = molecular target: T1, Serine/threonine-protein kinase Sgk3 (Homo sapiens) (UniProt Q96BR1); experiment: Inhibition of human SGK3 assessed as enzyme activity at 1 uM using GRPRTSSFAEG as substrate preincubated for 20 mins followed by [gamma-33P]-ATP addition and measured after 120 mins by radiometric Hot-SpotSM Kinase assay relative to control; design: scale not given: the % may be the effect or the level left
T1 sequence (whole entry): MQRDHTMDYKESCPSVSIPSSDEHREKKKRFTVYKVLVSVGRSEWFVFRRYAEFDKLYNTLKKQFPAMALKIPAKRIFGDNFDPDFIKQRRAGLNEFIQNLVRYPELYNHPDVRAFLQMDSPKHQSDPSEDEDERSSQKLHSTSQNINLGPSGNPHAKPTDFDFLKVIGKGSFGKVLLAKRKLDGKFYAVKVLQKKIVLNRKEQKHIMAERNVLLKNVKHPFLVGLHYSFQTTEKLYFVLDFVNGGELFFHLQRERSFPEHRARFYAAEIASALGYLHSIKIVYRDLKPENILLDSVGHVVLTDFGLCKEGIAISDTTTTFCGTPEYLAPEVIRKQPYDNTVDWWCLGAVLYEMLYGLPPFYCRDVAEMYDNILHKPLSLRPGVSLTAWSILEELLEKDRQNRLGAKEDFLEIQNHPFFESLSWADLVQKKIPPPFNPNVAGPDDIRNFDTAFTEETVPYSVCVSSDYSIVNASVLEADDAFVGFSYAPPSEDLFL

[3] = molecular target: Mitogen-activated protein kinase kinase kinase 21 (Homo sapiens) (UniProt Q5TCX8); experiment: Inhibition of human MLK4 assessed as enzyme activity at 1 uM using MEK1 (K97R) as substrate preincubated for 20 mins followed by [gamma-33P]-ATP addition and measured after 120 mins by radiometric Hot-SpotSM Kinase assay relative to control; design: scale not given: the % may be the effect or the level left
[4] = molecular target: STE20-like serine/threonine-protein kinase (Homo sapiens) (UniProt Q9H2G2); experiment: Inhibition of human SLK assessed as enzyme activity at 1 uM using histone H3 as substrate preincubated for 20 mins followed by [gamma-33P]-ATP addition and measured after 120 mins by radiometric Hot-SpotSM Kinase assay relative to control; design: scale not given: the % may be the effect or the level left
[5] = molecular target: NT-3 growth factor receptor (Homo sapiens) (UniProt Q16288); experiment: Inhibition of human TRKC assessed as enzyme activity at 1 uM using poly[Glu:Tyr] (4:1) as substrate preincubated for 20 mins followed by [gamma-33P]-ATP addition and measured after 120 mins by radiometric Hot-SpotSM Kinase assay relative to control; design: scale not given: the % may be the effect or the level left
[6] = molecular target: Serine/threonine-protein kinase N1 (Homo sapiens) (UniProt Q16512); experiment: Inhibition of human PKN1 assessed as enzyme activity at 1 uM using KKLNRTLSVA as substrate preincubated for 20 mins followed by [gamma-33P]-ATP addition and measured after 120 mins by radiometric Hot-SpotSM Kinase assay relative to control; design: scale not given: the % may be the effect or the level left
[7] = molecular target: T2, Serine/threonine-protein kinase TAO1 (Homo sapiens) (UniProt Q7L7X3); experiment: Inhibition of human TAOK1 assessed as enzyme activity at 1 uM using myelin basic protein as substrate preincubated for 20 mins followed by [gamma-33P]-ATP addition and measured after 120 mins by radiometric Hot-SpotSM Kinase assay relative to control; design: scale not given: the % may be the effect or the level left
T2 sequence (whole entry): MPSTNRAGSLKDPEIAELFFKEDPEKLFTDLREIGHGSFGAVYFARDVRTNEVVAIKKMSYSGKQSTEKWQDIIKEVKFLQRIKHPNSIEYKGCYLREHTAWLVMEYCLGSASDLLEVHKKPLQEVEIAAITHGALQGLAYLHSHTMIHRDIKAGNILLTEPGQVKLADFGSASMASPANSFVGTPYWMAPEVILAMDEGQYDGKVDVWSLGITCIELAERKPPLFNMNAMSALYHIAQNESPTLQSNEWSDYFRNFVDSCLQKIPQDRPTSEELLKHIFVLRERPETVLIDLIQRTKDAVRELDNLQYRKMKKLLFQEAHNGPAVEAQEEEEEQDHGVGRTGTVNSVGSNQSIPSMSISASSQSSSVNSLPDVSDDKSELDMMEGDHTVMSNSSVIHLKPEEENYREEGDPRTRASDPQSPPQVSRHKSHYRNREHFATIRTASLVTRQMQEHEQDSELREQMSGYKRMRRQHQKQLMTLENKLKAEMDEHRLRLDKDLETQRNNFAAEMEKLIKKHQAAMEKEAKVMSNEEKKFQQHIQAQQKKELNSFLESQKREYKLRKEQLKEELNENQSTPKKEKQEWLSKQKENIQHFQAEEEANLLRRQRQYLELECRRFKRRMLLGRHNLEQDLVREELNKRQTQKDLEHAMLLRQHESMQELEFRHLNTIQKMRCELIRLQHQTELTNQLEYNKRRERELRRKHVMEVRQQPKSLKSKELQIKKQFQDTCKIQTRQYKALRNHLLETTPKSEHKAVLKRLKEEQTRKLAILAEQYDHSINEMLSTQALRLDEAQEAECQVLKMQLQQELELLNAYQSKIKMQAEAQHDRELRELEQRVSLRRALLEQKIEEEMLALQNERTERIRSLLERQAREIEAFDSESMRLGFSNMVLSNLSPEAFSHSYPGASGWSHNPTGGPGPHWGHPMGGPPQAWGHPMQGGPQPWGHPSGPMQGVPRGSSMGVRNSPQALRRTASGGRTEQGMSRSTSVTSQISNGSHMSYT

PF-382 = experiment: Induction of apoptosis in human PF-382 cells assessed as increase in cleaved-PARP expression at 5 uM measured after 24 hrs in presence of carfilzomib by Western blot analysis; format: functional, cell-based
Z-138 = experiment: Cytotoxicity against human Z138 cells assessed as reduction in cell viability measured after 48 hrs by cell titer-glo assay; format: functional, cell-based
mTORC1 (Homo sapiens) [8] = molecular target: T3, mTORC1 (Homo sapiens) (UniProt P42345+Q8N122+Q9BVC4); experiment: Inhibition of mTORC1 in human LY7 cells assessed as reduction in c-Myc expression at 3 uM measured after 24 hrs by Western blot analysis; format: cell-based
mTORC1 (Homo sapiens) [9] = molecular target: T3, mTORC1 (Homo sapiens); experiment: Inhibition of mTORC1 in human LY10 cells assessed as reduction in c-Myc expression at 3 uM measured after 24 hrs in presence of bortezomib by Western blot analysis; format: cell-based
mTORC1 (Homo sapiens) [10] = molecular target: T3, mTORC1 (Homo sapiens); experiment: Inhibition of mTORC1 in human LY10 cells assessed as reduction in c-Myc expression at 3 uM measured after 24 hrs by Western blot analysis; format: cell-based
[11] = molecular target: Myc proto-oncogene protein (Homo sapiens) (UniProt P01106); experiment: Inhibition of c-Myc in human LY10 cells assessed as reduction in E2F1 expression at 3 uM incubated for 24 hrs by Western blot analysis; format: cell-based
[12] = molecular target: Myc proto-oncogene protein (Homo sapiens) (UniProt P01106); experiment: Inhibition of c-Myc in human LY7 cells assessed as reduction in eIF4B expression at 3 uM incubated for 24 hrs by Western blot analysis; format: cell-based
[13] = molecular target: Myc proto-oncogene protein (Homo sapiens) (UniProt P01106); experiment: Inhibition of c-Myc in human LY10 cells assessed as reduction in eIF4B expression at 3 uM incubated for 24 hrs by Western blot analysis; format: cell-based

T3 sequence (Q8N122 whole entry, looked up, other chains not shown): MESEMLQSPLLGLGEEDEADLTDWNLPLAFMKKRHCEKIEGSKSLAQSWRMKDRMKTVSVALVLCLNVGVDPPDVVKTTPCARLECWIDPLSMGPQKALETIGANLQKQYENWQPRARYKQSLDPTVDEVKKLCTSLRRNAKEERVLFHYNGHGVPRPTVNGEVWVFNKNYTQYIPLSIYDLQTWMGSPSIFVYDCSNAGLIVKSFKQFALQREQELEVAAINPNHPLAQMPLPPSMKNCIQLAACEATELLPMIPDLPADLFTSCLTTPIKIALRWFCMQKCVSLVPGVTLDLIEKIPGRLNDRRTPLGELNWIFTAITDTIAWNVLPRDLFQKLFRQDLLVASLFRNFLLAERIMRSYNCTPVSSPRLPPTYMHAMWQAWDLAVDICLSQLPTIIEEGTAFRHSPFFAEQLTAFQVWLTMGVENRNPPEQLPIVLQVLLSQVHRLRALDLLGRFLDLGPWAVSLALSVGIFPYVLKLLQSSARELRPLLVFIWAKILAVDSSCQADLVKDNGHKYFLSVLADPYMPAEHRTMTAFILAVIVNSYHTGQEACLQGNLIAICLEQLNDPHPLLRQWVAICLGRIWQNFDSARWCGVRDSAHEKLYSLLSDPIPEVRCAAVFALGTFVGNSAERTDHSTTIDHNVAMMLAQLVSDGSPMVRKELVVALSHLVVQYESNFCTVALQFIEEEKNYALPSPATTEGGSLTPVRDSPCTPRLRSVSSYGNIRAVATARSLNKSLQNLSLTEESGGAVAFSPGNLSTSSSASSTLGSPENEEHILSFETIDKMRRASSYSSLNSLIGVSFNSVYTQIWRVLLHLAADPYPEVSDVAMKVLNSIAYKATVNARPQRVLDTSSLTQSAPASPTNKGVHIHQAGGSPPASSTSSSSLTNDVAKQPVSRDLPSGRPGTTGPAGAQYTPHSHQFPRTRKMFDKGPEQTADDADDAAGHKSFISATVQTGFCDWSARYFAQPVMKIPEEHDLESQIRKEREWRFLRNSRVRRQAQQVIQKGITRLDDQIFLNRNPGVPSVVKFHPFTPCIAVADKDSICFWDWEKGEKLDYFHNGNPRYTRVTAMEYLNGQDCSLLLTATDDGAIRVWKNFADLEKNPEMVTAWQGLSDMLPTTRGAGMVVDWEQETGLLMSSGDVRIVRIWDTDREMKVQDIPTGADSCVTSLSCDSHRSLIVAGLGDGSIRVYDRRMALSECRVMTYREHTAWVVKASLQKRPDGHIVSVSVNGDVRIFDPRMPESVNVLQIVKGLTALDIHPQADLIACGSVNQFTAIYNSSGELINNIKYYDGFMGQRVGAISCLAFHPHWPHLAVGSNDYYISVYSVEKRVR
T3 sequence (Q9BVC4 whole entry, looked up, other chains not shown): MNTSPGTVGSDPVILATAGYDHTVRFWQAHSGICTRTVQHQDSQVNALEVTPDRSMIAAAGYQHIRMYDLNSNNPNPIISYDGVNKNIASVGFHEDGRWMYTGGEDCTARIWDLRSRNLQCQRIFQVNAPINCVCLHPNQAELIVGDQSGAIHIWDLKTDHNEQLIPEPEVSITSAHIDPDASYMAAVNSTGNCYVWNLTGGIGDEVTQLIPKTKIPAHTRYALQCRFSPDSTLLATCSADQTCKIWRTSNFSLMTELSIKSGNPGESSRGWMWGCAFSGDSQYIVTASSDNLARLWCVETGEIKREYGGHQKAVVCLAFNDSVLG
Chain of Myc proto-oncogene protein (Homo sapiens) (P01106 whole entry): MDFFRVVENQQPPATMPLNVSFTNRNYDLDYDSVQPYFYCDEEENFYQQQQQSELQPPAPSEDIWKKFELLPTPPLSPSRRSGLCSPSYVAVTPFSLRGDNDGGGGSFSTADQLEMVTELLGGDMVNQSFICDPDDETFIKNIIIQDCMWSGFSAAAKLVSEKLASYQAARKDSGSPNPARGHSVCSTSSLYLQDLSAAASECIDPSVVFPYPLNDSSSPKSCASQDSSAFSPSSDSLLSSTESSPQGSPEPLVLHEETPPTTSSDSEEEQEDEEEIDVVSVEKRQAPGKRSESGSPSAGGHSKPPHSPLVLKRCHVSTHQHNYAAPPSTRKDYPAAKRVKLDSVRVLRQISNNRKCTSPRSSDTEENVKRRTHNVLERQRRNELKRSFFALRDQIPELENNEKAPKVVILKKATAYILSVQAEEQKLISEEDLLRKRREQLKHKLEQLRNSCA
Chain of STE20-like serine/threonine-protein kinase (Homo sapiens) (Q9H2G2 whole entry, looked up): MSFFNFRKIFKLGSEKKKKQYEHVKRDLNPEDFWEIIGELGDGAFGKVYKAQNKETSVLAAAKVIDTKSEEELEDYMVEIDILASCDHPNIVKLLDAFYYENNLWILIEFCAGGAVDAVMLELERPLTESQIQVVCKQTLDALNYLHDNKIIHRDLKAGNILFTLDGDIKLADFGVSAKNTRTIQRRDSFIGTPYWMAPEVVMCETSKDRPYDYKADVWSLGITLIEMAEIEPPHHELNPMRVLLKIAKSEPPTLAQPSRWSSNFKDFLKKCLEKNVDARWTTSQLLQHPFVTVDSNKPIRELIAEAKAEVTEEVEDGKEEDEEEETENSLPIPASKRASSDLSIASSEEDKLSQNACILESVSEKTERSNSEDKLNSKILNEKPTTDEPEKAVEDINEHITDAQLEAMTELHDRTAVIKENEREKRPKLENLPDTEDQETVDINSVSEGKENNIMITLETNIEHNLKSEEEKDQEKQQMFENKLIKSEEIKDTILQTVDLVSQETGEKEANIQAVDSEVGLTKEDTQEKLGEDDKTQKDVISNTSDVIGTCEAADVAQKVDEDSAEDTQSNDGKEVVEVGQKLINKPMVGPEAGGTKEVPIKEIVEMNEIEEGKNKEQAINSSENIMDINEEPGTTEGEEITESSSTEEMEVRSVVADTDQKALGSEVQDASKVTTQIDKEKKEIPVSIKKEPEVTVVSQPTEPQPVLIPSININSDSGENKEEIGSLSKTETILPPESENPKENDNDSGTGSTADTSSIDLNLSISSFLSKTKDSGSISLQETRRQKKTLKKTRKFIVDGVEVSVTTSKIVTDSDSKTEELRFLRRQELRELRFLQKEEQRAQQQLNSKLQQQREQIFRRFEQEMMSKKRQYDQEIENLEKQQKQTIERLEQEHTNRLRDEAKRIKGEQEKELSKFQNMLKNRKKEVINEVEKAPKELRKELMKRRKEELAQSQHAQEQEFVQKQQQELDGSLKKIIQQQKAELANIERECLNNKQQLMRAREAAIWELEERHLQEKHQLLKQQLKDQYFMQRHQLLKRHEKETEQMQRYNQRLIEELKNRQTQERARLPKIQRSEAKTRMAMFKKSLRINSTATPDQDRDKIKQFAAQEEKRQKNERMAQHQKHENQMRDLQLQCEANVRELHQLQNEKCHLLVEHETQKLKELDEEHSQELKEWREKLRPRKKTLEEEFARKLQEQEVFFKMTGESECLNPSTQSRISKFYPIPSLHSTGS
Chain of Bone morphogenetic protein receptor type-1B (Homo sapiens) (O00238 whole entry): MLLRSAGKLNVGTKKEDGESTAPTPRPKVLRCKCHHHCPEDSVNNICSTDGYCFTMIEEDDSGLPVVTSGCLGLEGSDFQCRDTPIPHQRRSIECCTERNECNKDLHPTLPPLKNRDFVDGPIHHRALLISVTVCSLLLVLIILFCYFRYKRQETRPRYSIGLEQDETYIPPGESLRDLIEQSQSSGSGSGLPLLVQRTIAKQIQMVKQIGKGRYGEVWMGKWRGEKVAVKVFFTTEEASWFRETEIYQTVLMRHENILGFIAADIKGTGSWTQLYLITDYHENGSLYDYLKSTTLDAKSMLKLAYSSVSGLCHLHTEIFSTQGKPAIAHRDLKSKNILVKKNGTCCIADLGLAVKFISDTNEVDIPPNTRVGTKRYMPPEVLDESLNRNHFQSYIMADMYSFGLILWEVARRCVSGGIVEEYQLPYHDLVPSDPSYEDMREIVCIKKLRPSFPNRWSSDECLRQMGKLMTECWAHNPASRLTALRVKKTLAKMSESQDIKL
Chain of Mitogen-activated protein kinase kinase kinase 21 (Homo sapiens) (Q5TCX8 whole entry): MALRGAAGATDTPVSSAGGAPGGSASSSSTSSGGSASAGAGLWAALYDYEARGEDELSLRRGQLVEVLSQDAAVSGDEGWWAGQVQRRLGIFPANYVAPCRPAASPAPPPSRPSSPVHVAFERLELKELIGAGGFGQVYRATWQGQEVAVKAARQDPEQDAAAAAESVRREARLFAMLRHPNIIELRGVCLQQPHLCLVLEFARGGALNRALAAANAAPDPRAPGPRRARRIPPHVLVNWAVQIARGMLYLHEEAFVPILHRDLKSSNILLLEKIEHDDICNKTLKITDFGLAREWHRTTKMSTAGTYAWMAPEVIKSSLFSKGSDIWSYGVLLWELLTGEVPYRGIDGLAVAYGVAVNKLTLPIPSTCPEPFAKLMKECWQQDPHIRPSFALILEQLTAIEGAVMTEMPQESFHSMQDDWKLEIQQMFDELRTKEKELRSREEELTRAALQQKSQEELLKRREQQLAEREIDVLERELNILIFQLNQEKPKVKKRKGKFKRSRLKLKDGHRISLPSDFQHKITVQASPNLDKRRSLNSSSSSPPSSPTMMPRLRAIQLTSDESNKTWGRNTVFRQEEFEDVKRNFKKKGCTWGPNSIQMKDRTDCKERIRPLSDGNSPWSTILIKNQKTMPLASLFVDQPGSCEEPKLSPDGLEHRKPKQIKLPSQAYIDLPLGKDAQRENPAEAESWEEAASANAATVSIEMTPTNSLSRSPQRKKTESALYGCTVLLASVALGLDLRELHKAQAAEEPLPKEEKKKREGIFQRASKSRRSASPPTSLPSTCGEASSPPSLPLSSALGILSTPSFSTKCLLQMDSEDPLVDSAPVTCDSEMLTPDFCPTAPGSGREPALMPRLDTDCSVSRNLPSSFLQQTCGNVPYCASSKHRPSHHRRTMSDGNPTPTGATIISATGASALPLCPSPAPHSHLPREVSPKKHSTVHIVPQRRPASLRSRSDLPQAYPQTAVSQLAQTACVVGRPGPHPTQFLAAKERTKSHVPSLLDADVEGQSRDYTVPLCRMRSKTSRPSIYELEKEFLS

| Structure (SMILES) | Activity [1] | Activity [2] | Activity [3] | Activity [4] | Activity [5] | Activity [6] | Activity [7] | Activity (PF-382) | Activity (Z-138) | inhibition (mTORC1 (Homo sapiens) [8]) | inhibition (mTORC1 (Homo sapiens) [9]) | inhibition (mTORC1 (Homo sapiens) [10]) | inhibition [11] | inhibition [12] | inhibition [13] |
| --- | --- | --- | --- | --- | --- | --- | --- | --- | --- | --- | --- | --- | --- | --- | --- |
| C[C@H](Nc1ncnc2nc[nH]c12)c1cc2cccc(Cl)c2c(=O)n1-c1ccccc1 | 103% | 97.3% | 93.5% | 97.5% | 91% | 84% | 97.9% | – | – | – | – | – | – | – | – |
| CC[C@H](Nc1ncnc2[nH]cnc12)c1nc2cccc(F)c2c(=O)n1-c1ccccc1 | 103% | 97.2% | 95.7% | 97.3% | 89.6% | 90.5% | 101% | Active | Active | inactive | inactive | inactive | inactive | inactive | inactive |
| CC(C)Oc1ccc(-c2nn([C@@H](C)c3oc4ccc(F)cc4c(=O)c3-c3cccc(F)c3)c3ncnc(N)c23)cc1F [UMBRALISIB] | 110% | 98.7% | 94.7% | 94.5% | 88.7% | 92.8% | 92.9% | Active | Active | inactive | Active | inactive | inactive | inactive | inactive |
